Experimental data: the NIST ThermoML archive (doi:10.1021/je049579x)
“And” between values parts separate entries of the source, which are not always exact repeats. Identical values can stand only once. Numbers after ± are expanded uncertainties.

Conditions: Torsion effusion method

## [Cl][Yb]([Cl])[Cl] [ytterbium trichloride]
944 K, Crystal
  vapor or sublimation pressure: 0.000158 ± 2.1e-05 kPa
950 K, Crystal
  vapor or sublimation pressure: 0.000126 ± 1e-06 kPa
952 K, Crystal
  vapor or sublimation pressure: 0.000126 ± 1e-06 kPa
953 K, Crystal
  vapor or sublimation pressure: 0.000158 ± 3.2e-05 kPa
958 K, Crystal
  vapor or sublimation pressure: 0.000158 ± 3e-05 kPa and 0.000282 ± 2.5e-05 kPa
961 K, Crystal
  vapor or sublimation pressure: 0.000219 ± 2.9e-05 kPa
962 K, Crystal
  vapor or sublimation pressure: 0.000191 ± 2.2e-05 kPa
966 K, Crystal
  vapor or sublimation pressure: 0.000191 ± 1.3e-05 kPa and 0.000251 ± 1.1e-05 kPa
970 K, Crystal
  vapor or sublimation pressure: 0.000251 ± 3.8e-05 kPa
972 K, Crystal
  vapor or sublimation pressure: 0.000251 ± 3.8e-05 kPa
974 K, Crystal
  vapor or sublimation pressure: 0.000347 ± 3.7e-05 kPa and 0.000316 ± 3.7e-05 kPa
975 K, Crystal
  vapor or sublimation pressure: 0.000316 ± 5.2e-05 kPa and 0.000501 ± 5.2e-05 kPa
976 K, Crystal
  vapor or sublimation pressure: 0.000282 ± 4.6e-05 kPa
980 K, Crystal
  vapor or sublimation pressure: 0.00038 ± 3.3e-05 kPa
981 K, Crystal
  vapor or sublimation pressure: 0.00038 ± 5e-05 kPa
982 K, Crystal
  vapor or sublimation pressure: 0.000437 ± 9.1e-05 kPa and 0.00038 ± 9.3e-05 kPa
983 K, Crystal
  vapor or sublimation pressure: 0.000437 ± 9.2e-05 kPa
986 K, Crystal
  vapor or sublimation pressure: 0.000407 ± 6.7e-05 kPa
990 K, Crystal
  vapor or sublimation pressure: 0.000603 ± 6.1e-05 kPa and 0.000468 ± 5.9e-05 kPa and 0.000537 ± 6e-05 kPa
992 K, Crystal
  vapor or sublimation pressure: 0.000562 ± 0.00011 kPa
993 K, Crystal
  vapor or sublimation pressure: 0.000871 ± 0.00011 kPa
994 K, Crystal
  vapor or sublimation pressure: 0.000631 ± 0.00011 kPa
996 K, Crystal
  vapor or sublimation pressure: 0.000631 ± 4.3e-05 kPa
999 K, Crystal
  vapor or sublimation pressure: 0.000759 ± 7.9e-05 kPa and 0.000692 ± 8.1e-05 kPa
1000 K, Crystal
  vapor or sublimation pressure: 0.000794 ± 8.1e-05 kPa and 0.000759 ± 8e-05 kPa
1001 K, Crystal
  vapor or sublimation pressure: 0.000724 ± 0.00014 kPa
1005 K, Crystal
  vapor or sublimation pressure: 0.000851 ± 7.3e-05 kPa and 0.001349 ± 7.3e-05 kPa
1007 K, Crystal
  vapor or sublimation pressure: 0.001 ± 0.00013 kPa
1008 K, Crystal
  vapor or sublimation pressure: 0.000912 ± 0.00013 kPa
1010 K, Crystal
  vapor or sublimation pressure: 0.000977 ± 0.00013 kPa and 0.001 ± 0.00013 kPa
1015 K, Crystal
  vapor or sublimation pressure: 0.001175 ± 0.00015 kPa and 0.00123 ± 0.00015 kPa
1016 K, Crystal
  vapor or sublimation pressure: 0.001413 ± 0.00016 kPa
1017 K, Crystal
  vapor or sublimation pressure: 0.00123 ± 0.00016 kPa and 0.001905 ± 0.00017 kPa
1019 K, Crystal
  vapor or sublimation pressure: 0.001318 ± 0.00016 kPa
1020 K, Crystal
  vapor or sublimation pressure: 0.001349 ± 0.00016 kPa and 0.001549 ± 0.00016 kPa
1023 K, Crystal
  vapor or sublimation pressure: 0.001514 ± 0.00016 kPa
1026 K, Crystal
  vapor or sublimation pressure: 0.001622 ± 0.00023 kPa
1029 K, Crystal
  vapor or sublimation pressure: 0.001698 ± 0.00022 kPa
1030 K, Crystal
  vapor or sublimation pressure: 0.002884 ± 0.00026 kPa
1035 K, Crystal
  vapor or sublimation pressure: 0.002188 ± 2.2e-05 kPa
1036 K, Crystal
  vapor or sublimation pressure: 0.002089 ± 3.6e-05 kPa and 0.002344 ± 4.2e-05 kPa and 0.002239 ± 4e-05 kPa
1038 K, Crystal
  vapor or sublimation pressure: 0.002239 ± 6.9e-05 kPa and 0.002188 ± 7.1e-05 kPa
1044 K, Crystal
  vapor or sublimation pressure: 0.002692 ± 0.00038 kPa and 0.00302 ± 0.00038 kPa and 0.004571 ± 0.00038 kPa
1046 K, Crystal
  vapor or sublimation pressure: 0.002884 ± 0.00044 kPa
1048 K, Crystal
  vapor or sublimation pressure: 0.00302 ± 0.0004 kPa
1050 K, Crystal
  vapor or sublimation pressure: 0.003388 ± 0.00041 kPa
1052 K, Crystal
  vapor or sublimation pressure: 0.003802 ± 0.00044 kPa
1053 K, Crystal
  vapor or sublimation pressure: 0.003802 ± 0.0006 kPa
1054 K, Crystal
  vapor or sublimation pressure: 0.003981 ± 0.0006 kPa
1055 K, Crystal
  vapor or sublimation pressure: 0.003802 ± 0.00059 kPa and 0.006761 ± 0.00048 kPa
1057 K, Crystal
  vapor or sublimation pressure: 0.004074 ± 0.00053 kPa
1062 K, Crystal
  vapor or sublimation pressure: 0.005129 ± 0.0005 kPa and 0.005012 ± 0.0005 kPa
1063 K, Crystal
  vapor or sublimation pressure: 0.004677 ± 0.00052 kPa and 0.004898 ± 0.00052 kPa and 0.005012 ± 0.00051 kPa
1064 K, Crystal
  vapor or sublimation pressure: 0.004898 ± 0.00052 kPa
1071 K, Crystal
  vapor or sublimation pressure: 0.005888 ± 0.00092 kPa and 0.006761 ± 0.00091 kPa and 0.006918 ± 0.00091 kPa
1072 K, Crystal
  vapor or sublimation pressure: 0.00631 ± 0.00091 kPa and 0.006918 ± 0.00091 kPa and 0.006457 ± 0.00091 kPa
1079 K, Crystal
  vapor or sublimation pressure: 0.008318 ± 0.00098 kPa
1081 K, Crystal
  vapor or sublimation pressure: 0.008913 ± 0.001 kPa and 0.00912 ± 0.001 kPa
1082 K, Crystal
  vapor or sublimation pressure: 0.00871 ± 0.00098 kPa
1087 K, Crystal
  vapor or sublimation pressure: 0.01 ± 0.0014 kPa
1088 K, Crystal
  vapor or sublimation pressure: 0.01202 ± 0.0013 kPa and 0.01148 ± 0.0013 kPa
1090 K, Crystal
  vapor or sublimation pressure: 0.01202 ± 0.0014 kPa
1096 K, Crystal
  vapor or sublimation pressure: 0.01349 ± 0.00098 kPa

## [I][Yb][I] [ytterbium(II) iodide]
968 K, Crystal
  vapor or sublimation pressure: 1.9e-05 ± 5e-06 kPa
975 K, Crystal
  vapor or sublimation pressure: 2.8e-05 ± 5e-06 kPa
976 K, Crystal
  vapor or sublimation pressure: 2.8e-05 ± 5e-06 kPa
978 K, Crystal
  vapor or sublimation pressure: 3.8e-05 ± 4e-06 kPa
982 K, Crystal
  vapor or sublimation pressure: 3.8e-05 ± 4e-06 kPa
987 K, Crystal
  vapor or sublimation pressure: 3.8e-05 ± 6e-06 kPa
989 K, Crystal
  vapor or sublimation pressure: 3.8e-05 ± 5e-06 kPa and 4.8e-05 ± 5e-06 kPa and 5.6e-05 ± 5e-06 kPa
991 K, Crystal
  vapor or sublimation pressure: 4.8e-05 ± 5e-06 kPa
996 K, Crystal
  vapor or sublimation pressure: 5.6e-05 ± 5e-06 kPa and 6.6e-05 ± 5e-06 kPa
997 K, Crystal
  vapor or sublimation pressure: 6.3e-05 ± 5e-06 kPa
998 K, Crystal
  vapor or sublimation pressure: 5.6e-05 ± 5e-06 kPa
999 K, Crystal
  vapor or sublimation pressure: 5.6e-05 ± 1e-05 kPa
1003 K, Crystal
  vapor or sublimation pressure: 6.3e-05 ± 3e-06 kPa
1005 K, Crystal
  vapor or sublimation pressure: 8.5e-05 ± 1e-05 kPa
1006 K, Crystal
  vapor or sublimation pressure: 7.6e-05 ± 1e-05 kPa and 7.9e-05 ± 1e-05 kPa
1008 K, Crystal
  vapor or sublimation pressure: 6.3e-05 ± 6e-06 kPa and 7.6e-05 ± 6e-06 kPa
1011 K, Crystal
  vapor or sublimation pressure: 8.5e-05 ± 7e-06 kPa
1013 K, Crystal
  vapor or sublimation pressure: 7.9e-05 ± 1.1e-05 kPa and 0.000115 ± 1e-05 kPa
1014 K, Crystal
  vapor or sublimation pressure: 9.3e-05 ± 1.1e-05 kPa
1015 K, Crystal
  vapor or sublimation pressure: 9.5e-05 ± 1.7e-05 kPa
1017 K, Crystal
  vapor or sublimation pressure: 9.5e-05 ± 1.5e-05 kPa
1019 K, Crystal
  vapor or sublimation pressure: 9.3e-05 ± 1.5e-05 kPa
1020 K, Crystal
  vapor or sublimation pressure: 0.000115 ± 1.5e-05 kPa
1021 K, Crystal
  vapor or sublimation pressure: 0.000141 ± 1.4e-05 kPa
1022 K, Crystal
  vapor or sublimation pressure: 0.000126 ± 1e-05 kPa
1023 K, Crystal
  vapor or sublimation pressure: 0.00011 ± 1e-05 kPa
1025 K, Crystal
  vapor or sublimation pressure: 0.000132 ± 1.7e-05 kPa
1026 K, Crystal
  vapor or sublimation pressure: 0.000132 ± 1e-05 kPa
1029 K, Crystal
  vapor or sublimation pressure: 0.000126 ± 2.1e-05 kPa
1030 K, Crystal
  vapor or sublimation pressure: 0.000158 ± 1e-05 kPa and 0.000151 ± 1e-05 kPa and 0.000182 ± 1e-05 kPa
1034 K, Crystal
  vapor or sublimation pressure: 0.00017 ± 1.9e-05 kPa
1035 K, Crystal
  vapor or sublimation pressure: 0.000158 ± 2e-05 kPa and 0.00017 ± 2e-05 kPa and 0.000182 ± 2e-05 kPa
1038 K, Crystal
  vapor or sublimation pressure: 0.000219 ± 1.6e-05 kPa
1039 K, Crystal
  vapor or sublimation pressure: 0.000174 ± 3.9e-05 kPa and 0.000204 ± 3.8e-05 kPa
1040 K, Crystal
  vapor or sublimation pressure: 0.000209 ± 4.5e-05 kPa
1043 K, Crystal
  vapor or sublimation pressure: 0.000229 ± 5e-06 kPa [middle of 4 runs]
1046 K, Crystal
  vapor or sublimation pressure: 0.000282 ± 4.9e-05 kPa
1049 K, Crystal
  vapor or sublimation pressure: 0.000234 ± 2e-05 kPa and 0.000282 ± 5.2e-05 kPa
1068 K, Liquid
  vapor or sublimation pressure: 0.000468 ± 2.6e-05 kPa
1073 K, Liquid
  vapor or sublimation pressure: 0.000501 ± 6.5e-05 kPa
1078 K, Liquid
  vapor or sublimation pressure: 0.000631 ± 7.2e-05 kPa
1082 K, Liquid
  vapor or sublimation pressure: 0.000631 ± 7.2e-05 kPa
1087 K, Liquid
  vapor or sublimation pressure: 0.000759 ± 7.3e-05 kPa
1092 K, Liquid
  vapor or sublimation pressure: 0.000813 ± 8.9e-05 kPa
1098 K, Liquid
  vapor or sublimation pressure: 0.001 ± 0.00014 kPa
1101 K, Liquid
  vapor or sublimation pressure: 0.001 ± 0.00014 kPa
1103 K, Liquid
  vapor or sublimation pressure: 0.001202 ± 0.00015 kPa
1108 K, Liquid
  vapor or sublimation pressure: 0.00138 ± 0.00014 kPa
1111 K, Liquid
  vapor or sublimation pressure: 0.001259 ± 0.00014 kPa
1112 K, Liquid
  vapor or sublimation pressure: 0.001445 ± 0.00014 kPa
1117 K, Liquid
  vapor or sublimation pressure: 0.001698 ± 0.00017 kPa
1119 K, Liquid
  vapor or sublimation pressure: 0.001585 ± 0.00019 kPa
1122 K, Liquid
  vapor or sublimation pressure: 0.001862 ± 0.00018 kPa
1127 K, Liquid
  vapor or sublimation pressure: 0.002138 ± 0.00015 kPa
1128 K, Liquid
  vapor or sublimation pressure: 0.001995 ± 0.00025 kPa
1132 K, Liquid
  vapor or sublimation pressure: 0.002239 ± 0.00025 kPa
1137 K, Liquid
  vapor or sublimation pressure: 0.002754 ± 0.00026 kPa
1138 K, Liquid
  vapor or sublimation pressure: 0.002512 ± 0.00026 kPa
1143 K, Liquid
  vapor or sublimation pressure: 0.002951 ± 0.00035 kPa
1148 K, Liquid
  vapor or sublimation pressure: 0.003388 ± 0.00038 kPa and 0.00309 ± 0.0004 kPa
1152 K, Liquid
  vapor or sublimation pressure: 0.003548 ± 0.00037 kPa
1158 K, Liquid
  vapor or sublimation pressure: 0.004365 ± 0.00055 kPa and 0.003981 ± 0.00057 kPa
1162 K, Liquid
  vapor or sublimation pressure: 0.004786 ± 0.00055 kPa
1168 K, Liquid
  vapor or sublimation pressure: 0.005754 ± 0.00046 kPa and 0.005129 ± 0.00044 kPa
1173 K, Liquid
  vapor or sublimation pressure: 0.006026 ± 0.00043 kPa
1179 K, Liquid
  vapor or sublimation pressure: 0.006918 ± 0.00068 kPa and 0.006761 ± 0.00068 kPa
1183 K, Liquid
  vapor or sublimation pressure: 0.007586 ± 0.00067 kPa
1189 K, Liquid
  vapor or sublimation pressure: 0.00871 ± 0.00075 kPa
1192 K, Liquid
  vapor or sublimation pressure: 0.008913 ± 0.00059 kPa
